Calls of active or inactive are those of the source.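 The calls were made as follows: active = half-maximal IDE activation concentration EC50 of 10 µM or lower; inactive = EC50 above 10 µM.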
Target: Insulin-degrading enzyme (Homo sapiens) (UniProt P14735)
Assay: activators of recombinant IDE enzyme, dose response, counter-screen for IDE activator project, biochemical, fluorescence polarization (AID 588681)
Conditions: FAbetaB cleavage

Sequence of Insulin-degrading enzyme (Homo sapiens) (P14735 whole entry, looked up): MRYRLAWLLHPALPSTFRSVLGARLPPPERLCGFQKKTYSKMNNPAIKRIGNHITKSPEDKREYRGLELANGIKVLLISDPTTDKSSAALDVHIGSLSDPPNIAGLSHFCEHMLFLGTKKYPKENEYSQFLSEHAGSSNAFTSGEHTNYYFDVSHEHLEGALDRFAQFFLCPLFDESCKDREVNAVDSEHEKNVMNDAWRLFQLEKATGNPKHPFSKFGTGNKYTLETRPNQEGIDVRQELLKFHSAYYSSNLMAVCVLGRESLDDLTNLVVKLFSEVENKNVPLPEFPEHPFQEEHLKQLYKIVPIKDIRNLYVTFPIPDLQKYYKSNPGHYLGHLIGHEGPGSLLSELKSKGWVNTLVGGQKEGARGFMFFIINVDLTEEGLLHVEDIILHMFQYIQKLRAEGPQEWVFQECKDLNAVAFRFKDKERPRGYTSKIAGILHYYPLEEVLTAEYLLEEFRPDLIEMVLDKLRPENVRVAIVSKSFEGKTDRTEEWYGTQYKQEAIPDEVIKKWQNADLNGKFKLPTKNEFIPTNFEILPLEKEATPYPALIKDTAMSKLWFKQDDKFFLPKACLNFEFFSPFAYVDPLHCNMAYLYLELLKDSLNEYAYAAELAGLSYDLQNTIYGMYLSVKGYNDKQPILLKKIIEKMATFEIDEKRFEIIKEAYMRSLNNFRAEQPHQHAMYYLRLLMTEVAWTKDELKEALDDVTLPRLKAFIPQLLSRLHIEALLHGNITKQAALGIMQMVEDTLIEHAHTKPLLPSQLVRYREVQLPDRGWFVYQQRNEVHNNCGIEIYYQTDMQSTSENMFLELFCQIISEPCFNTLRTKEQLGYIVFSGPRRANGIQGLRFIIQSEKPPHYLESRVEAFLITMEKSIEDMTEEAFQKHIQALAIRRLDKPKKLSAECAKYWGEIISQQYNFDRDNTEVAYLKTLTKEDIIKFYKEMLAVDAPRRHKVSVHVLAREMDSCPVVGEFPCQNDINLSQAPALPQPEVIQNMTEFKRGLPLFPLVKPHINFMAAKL

| SMILES | EC50 |
| --- | --- |
| C#CCOCCOCCOCCNc1nc(N2CCN(C(=O)CCCCCCCCCCNC(=O)Cn3cc(C[C@@H](C)O)nn3)CC2)nc(N2CCN(C(=O)CCCCCCCCCCNC(=O)[C@H](CCCN=C(N)N)n3cc(C[C@@H](C)CC)nn3)CC2)n1 | 6.55 µM |
| C#CCOCCOCCOCCNc1nc(N2CCN(C(=O)CCCCCCCCCCNC(=O)[C@H](CO)n3cc(CCCSC)nn3)CC2)nc(N2CCN(C(=O)CCCCCCCCCCNC(=O)[C@H](CCCCN)n3cc(CCO)nn3)CC2)n1 | > 54.7 µM (inactive) |
| C#CCOCCOCCOCCNc1nc(N2CCN(C(=O)CCCCCCCCCCNC(=O)[C@@H](CCSC)n3cc(CCO)nn3)CC2)nc(N2CCN(C(=O)CCCCCCCCCCNC(=O)[C@H](CO)n3cc(CCCCCN)nn3)CC2)n1 | inactive |

Continued, values first:

| EC50 | SMILES |
| --- | --- |
| inactive | C#CCOCCOCCOCCNc1nc(N2CCN(C(=O)CCCCCCCCCCNC(=O)Cn3cc(CCCCCN)nn3)CC2)nc(N2CCN(C(=O)CCCCCCCCCCNC(=O)[C@H](CO)n3cc(CCCSC)nn3)CC2)n1 |
| 2.32 µM | C#CCOCCOCCOCCNc1nc(N2CCN(C(=O)CCCCCCCCCCNC(=O)[C@H]([C@@H](C)CC)n3cc(CCCCCN)nn3)CC2)nc(N2CCN(C(=O)CCCCCCCCCCNC(=O)[C@H]([C@@H](C)CC)n3cc(CCCCN=C(N)N)nn3)CC2)n1 |
| 7.08 µM | C#CCOCCOCCOCCNc1nc(N2CCN(C(=O)CCCCCCCCCCNC(=O)[C@H](CCCCN)n3cc(CCO)nn3)CC2)nc(N2CCN(C(=O)CCCCCCCCCCNC(=O)[C@H](CCCN=C(N)N)n3cc(C[C@@H](C)CC)nn3)CC2)n1 |
| > 54.7 µM (inactive) | C#CCOCCOCCOCCNc1nc(N2CCN(C(=O)CCCCCCCCCCNC(=O)Cn3cc(CCCCCN)nn3)CC2)nc(N2CCN(C(=O)CCCCCCCCCCNC(=O)Cn3cc(C[C@@H](C)O)nn3)CC2)n1 |
| 8.55 µM | C#CCOCCOCCOCCNc1nc(N2CCN(C(=O)CCCCCCCCCCNC(=O)Cn3cc(CCCCCN)nn3)CC2)nc(N2CCN(C(=O)CCCCCCCCCCNC(=O)[C@H]([C@@H](C)CC)n3cc(CCCCCN)nn3)CC2)n1 |

From PubChem BioAssay AID588681 (The Scripps Research Institute Molecular Screening Center, 2011)
